# Test results as given in patent US20020120098A1, “Enhanced stimulation of erythropoiesis” (priority 1996, published 2002).
# Key:
# CFU-GM = assay: Colony formation assay (CFA), cord blood LDMNC: CFU-GM colonies; assay type: cell-based, human; details: 2 U/ml Epo; for effect on CFU-GM numbers (in words): ambient O2; for CFU-GM progenitor number, fold increase: ambient O2, vs vehicle control
# Experimental: This technique, referred to as the colony formation assay (CFA), is the most widely used biological assay to identify and enumerate erythroid progenitors present in hematopoietic tissue such as blood and bone marrow. Cell populations containing erythroid progenitors are plated in semi-solid suspensions of methyl cellulose, agar, low melting agarose or related substances in nutrient culture medium containing 1-3 U/ml Epo and 10 ng/ml IL-3 to specifically stimulate erythroid progenitors. Plates are incubated at 37° C. for 14 days during which time the erythroid progenitors form characteristic hemoglobinized (red) colonies. Two distinct but related erythroid progenitors can be distinguished based on colony size and morphology: BFU-E, the most primitive recognizable erythroid progenitor forms large multilobular colonies whereas the more mature CFU-E forms smaller spherical colonies.
# Adult hemoglobin was purified according to U.S Pat. Nos. 5,439,591 and 5,545,328 to obtain HAo and HEMOLINK™ was prepared from HAo according to U.S. Pat. No. 5,532,352. Human umbilical cord blood intended for discard was collected from the umbilical vein of placentas immediately postpartum into 10 ml vacutainer tubes containing 143 USP units/ml sodium heparin. Low density mononuclear cells were separated from red blood cells by centrifugation over a 1.077 g/ml density gradient Cells removed from the plasma/density gradient interface were incubated overnight in a tissue culture flask with 10 ml cell culture medium containing 10% fetal bovine serum, and non-adherent LDMNC were further purified with an additional density gradient step. The LDMNC were then plated into colony formation assays (CFA) on the second day of isolation. In the CFA, LDMNC were plated at a density of 1×10^5 cells/ml in Iscoves modified Dulbeccos cell culture medium containing 0.8% methyl-cellulose, 30% fetal bovine serum, 1% bovine serum albumin, 0.1 mM 2-mercaptoethanol and 2 mM L-glutamine. Unless indicated otherwise, under standard CFA conditions 2 U/ml Epo and 10 ng/ml IL-3 are added to the formulation to stimulate hematopoietic progenitor growth, specifically BFU-E, CFU-E and CFU-GM.
# Each condition was tested in duplicate in from 2-18 independent experiments. Cultures were maintained in a humidified incubator at 37° C., 5% CO2 and ambient oxygen tensions. The number of hematopoietic progenitors was scored between days 13-15 by counting the number and types of colonies present.
# The effect of the various additives on the inhibitory effect of succinylacetone (SA), a heme synthesis inhibitor, on erythroid progenitors was determined. Primary LDMNC were cultured in methyl cellulose as described in Example 1. Cord blood LDMN were plated in the presence of 1.0 mg/ml HAo (15.6 μM; n=12) or HEMOLINK™ (15.6 μM; n=5), 100 μM hemin (n=12), 250 μM FeCl3 (n=11) or no addition (n=12), in absence or presence of 0.5 mM SA. Cultures were maintained in a humidified chamber at 37° C., 5% CO2, and ambient oxygen tensions for 14 days.
# HEMOLINK™ was evaluated for its ability to protect erythroid progenitor cells from toxicity due to ganciclovir. Cord blood LDMNC were set up in CFAs in the presence and absence of 1 mg/ml HEMOLINK™ plus 0, 0.1, 1.0, 10, 50 or 100 μM ganciclovir. Conditions for the CFA were similar to those described in Examples 1-4. […] All data are expressed relative to the number of colonies of control plates without HEMOLINK™. The hematopoietic progenitors display different sensitivities to ganciclovir. CFU-E were unaffected by 1 μM ganciclovir. However, a similar inhibition of BFU-E occurs at a 50-fold lower dose of ganciclovir (1 μM). […] Due to the difficulty in scoring CFU-GM in the presence of hemoglobin precipitates, as previously noted, they could not be accurately measured under these conditions. Thus, HEMOLINK™ reduces toxicity of ganciclovir to erythroid progenitors with the most pronounced effect on BFU-E cells.
# [1] = Half-life and blood level of Epo versus HEMOLINK after single i.v. administration; assay type: in vivo; details: for HEMOLINK level: single i.v. 4 ml/kg
# Excerpt: Another strategy for the co-administration of Epo and hemoglobin is to reduce the number of Epo administrations required during therapy. Several Epo therapies follow the regimen of three weekly injections, either intravenously or subcutaneously. Multiple low dose or single high dose injections of Epo are required due to its relatively short half-life in vivo. […] HEMOLINK™ has a longer half-life. […] Longer half-life of the cross-linked hemoglobin can therefore compensate for Epo which may decline at a much faster rate. Thus, hemoglobin co-administered with Epo could prolong the effectiveness of Epo and therefore this combination therapy can be used to reduce the required frequency of Epo administrations.
# anemic rats = assay: Stimulation of erythropoiesis in iron-deficient anemic rats; assay type: in vivo, Sprague Dawley rats
# Experimental: HEMOLINK™ was evaluated for the stimulation of erythropoiesis in anemic rats. Male Sprague Dawley rats were made anemic on an iron deficient diet over a 4 week period. Six of the anemic rats received two infusions via tail vein injection one week apart (dose I and dose II) of 10% of total blood volume of 9.8 g/dL HEMOLINK™. Nine anemic rats received an equivalent amount of parenteral iron (INFJFER™, Sabex) per kg body weight for comparison. Both solutions contained 342.9 mg/L iron. The iron-deficient anemia of the HEMOLINK™ group was characterized by a pretreatment serum iron level of […] (n=1), a reticulocyte count of 0.39±0.08×10^12/L, a red blood cell count of 1.85±0.35×10^12/L, a 6.5±1.26% hematocrit and a total blood hemoglobin of 30.5±4.38 g/L.
# Statistical comparisons in FIG. 14 are based on one way analyses of variance, followed by Bonefoni comparison post-hoc tests. The effect of HEMOLINK™ infusion on reticulocyte count, red blood cell count, total hemoglobin and hematocrit in anemic male rats was compared to iron infusion (INFUFER™; an iron-containing pharmaceutical composition) and to pretreatment levels. Significant differences are indicated by *p<0.05 compared with INFUFER™ and **p<0.01 compared with pretreatment anemic rats.
# [2] = dose 1000 μg/ml, underestimated due to hemoglobin precipitates
# [3] = anemic male rats, two i.v. infusions one week apart
molecule,measurement,setting,value
HAo: adult human hemoglobin obtained from red blood cells and purified by displacement chromatography; uncross linked product,effect on CFU-GM numbers (in words),CFU-GM,does not stimulate CFU-GM
same,"CFU-GM progenitor number, fold increase",CFU-GM; dose 10 μg/ml,1.4 fold
same,"CFU-GM progenitor number, fold increase",CFU-GM; dose 100 μg/ml,1.5 fold
same,"CFU-GM progenitor number, fold increase",CFU-GM; dose 500 μg/ml,1.2 fold
same,"CFU-GM progenitor number, fold increase",CFU-GM; [2],**0.5 fold
HEMOLINK™: chemically crosslinked hemoglobin prepared by treating human hemoglobin with a polyaldehyde (O-raffinose),HEMOLINK level,[1]; 0 hours post administration,4.7 mg/mL
same,half-life of the 64 kD fraction,[1]; 0.4 g HEMOLINK/kg body weight,~7 h
same,half-life of the >64 kD fraction,[1]; 0.4 g HEMOLINK/kg body weight,~21 h
same,HEMOLINK level,[1]; 21 hours post administration,1.75 mg/mL
same,HEMOLINK level,[1]; 42 hours post administration,0.81 mg/mL
same,HEMOLINK level,[1]; 63 hours post administration,0.39 mg/mL
same,HEMOLINK level,[1]; 84 hours post administration,0.19 mg/mL
same,erythropoietic response of anemic female rats,anemic rats; anemic female rats,not significantly different from INFUFER™
same,serum iron level at study termination,"anemic rats; anemic female rats, two doses",27.70 ± 9.88 mg/dL
same,increase in hematocrit,anemic rats; [3],significant increase
same,increase in number of red blood cells,anemic rats; [3],significant increase
same,increase in number of reticulocytes,anemic rats; [3],significant increase
same,increase in total hemoglobin concentration,anemic rats; [3],significant increase
same,serum iron level at study termination,"anemic rats; male rats, two infusions",10.0 ± 1.95 mg/dL
same,"CFU-GM progenitor number, fold increase",CFU-GM; [2],*0.6 fold
[Cl][Fe]([Cl])[Cl] [FeCl3],effect on CFU-GM numbers (in words),CFU-GM,unaffected
same,"CFU-GM progenitor number, fold increase",CFU-GM; dose 1.0 μM,1.2 fold
same,"CFU-GM progenitor number, fold increase",CFU-GM; dose 10 μM,1.0 fold
same,"CFU-GM progenitor number, fold increase",CFU-GM; dose 100 μM,0.8 fold
same,"CFU-GM progenitor number, fold increase",CFU-GM; dose 250 μM,1.3 fold
C=CC1=C(C)C2=Cc3c(C=C)c(C)c4[n]3[Fe-2]35([Cl])[n]6c(c(C)c(CCC(=O)O)c6=CC6=[N+]3C(=C4)C(C)=C6CCC(=O)O)=CC1=[N+]25 [hemin],effect on CFU-GM numbers (in words),CFU-GM,unaffected
same,"CFU-GM progenitor number, fold increase",CFU-GM; dose 1.0 μM,1.5 fold
same,"CFU-GM progenitor number, fold increase",CFU-GM; dose 10 μM,1.4 fold
same,"CFU-GM progenitor number, fold increase",CFU-GM; dose 64 μM,1.2 fold
same,"CFU-GM progenitor number, fold increase",CFU-GM; dose 100 μM,1.0 fold
same,"CFU-GM progenitor number, fold increase",CFU-GM; dose 250 μM,1.4 fold
